This note sets out measurements from patent EP1619195A2, “Compounds isolated from gamboge resin having activity in inhibiting the growth of tumor/cancer cells and pharmaceutical compositions comprising the same” (priority 2004, dated 2006).

In brackets after ≈: the same amount, converted by molar mass.

The test system of one data set is HUVEC. Description: in vitro. The settings on record: HUVEC (normal human cell); for LC50: 50% cell destroying lethal concentration; for IC50: Homo sapiens, HUVEC, 50% cell growth inhibition concentration. The text has this:
(§1) The cancer cell growth inhibition test was primarily used to detect the effect of a candidate drug on cancer cell proliferation. The working principle involved therein is the abilityof viable cells to shift alamarBlue (Biosource, USA) from its originally non-fluorescent oxidized state to a reduced form (fluorescent, red) having fluorescence via metabolic reaction. According to the fluorescent data result generated by the alamarBlue reagent thus obtained, the proliferation of the viable cells and cell activity can be quantified for detection.
(§2) In this experiment, the assay concentrations of the candidate drug were set to be 0.01, 0.1, 1, 10, and 100 µg/ml, and the following cell lines were used: 6 human cancer cells MCF-7 (breast cancer), HT-29 (colon cancer), HL-60 (leukemia), HepG2 (liver cancer), A549 (lung cancer), and U937 (lymphoma cancer), and a normal human umbilicalvenalepithelialcell (HUVEC).

The test system of another data set is U937 (lymphoma cancer). Description: cells. To be noted: for LC50: U937, 50% cell destroying lethal concentration.
From the text: as §1, §2

Another data set has as its system A549 (lung cancer). Description: cells. The settings on record: for LC50: A549, 50% cell destroying lethal concentration; for IC50: A549, A549, 50% cell growth inhibition concentration.
From the text: as §1, §2

The next data set relates to MCF-7 (breast cancer). Description: cells. To be noted: for LC50: 50% cell destroying lethal concentration; for IC50: 50% cell growth inhibition concentration.
From the text: as §1, §2

The test system of a further data set is HT-29 (colon cancer). Description: cells. The settings on record: for LC50: 50% cell destroying lethal concentration; for IC50: 50% cell growth inhibition concentration.
From the text: as §1, §2

For another data set, the system named is HepG2 (liver cancer). Description: cells. The settings on record: for LC50: 50% cell destroying lethal concentration; for IC50: 50% cell growth inhibition concentration.
From the text: as §1, §2

The test system of another data set is HL-60 (leukemia). Description: cells. The settings on record: for LC50: HL-60, 50% cell destroying lethal concentration; for IC50: HL-60, HL-60, 50% cell growth inhibition concentration.
From the text: as §1, §2

The nature of the next data set: in vitro. The settings on record: human.
From the text: as §1, §2

Setting [1] is: Homo sapiens, U-937, U937, 50% cell growth inhibition concentration.

A word on the LC50: it is the concentration lethal to half of the exposed cells or organisms. Broadly, the IC50 is the concentration at which inhibition is half-maximal. A high value points to lower potency. Consider `CC(C)=CCc1c2c(c(O)c3c1OC14C(=CC5CC1C(C)(C)OC4(CC=C(C)C(=O)O)C5=O)C3=O)C=CC(C)(C)O2` (centres unmarked) [TSB-2, isomorellic acid], for which the LC50 in the data set with HUVEC worked out at 22 µg/mL (≈ 39.2 µM); in the data set on U937 (lymphoma cancer), 6.1 µg/mL (≈ 10.9 µM); with A549 (lung cancer), 4.6 µg/mL (≈ 8.2 µM); in the data set with MCF-7 (breast cancer) (MCF-7) it was 24 µg/mL (≈ 42.8 µM); in the data set on HT-29 (colon cancer) (HT-29), 12 µg/mL (≈ 21.4 µM); in the data set on HepG2 (liver cancer) (HepG2), 33 µg/mL (≈ 58.9 µM). In the data set on HL-60 (leukemia), this compound had an LC50 of 43 µg/mL (≈ 76.7 µM). Also, the IC50 was 1.7 µg/mL (≈ 3.03 µM) with HUVEC; 1.6 µg/mL (≈ 2.85 µM) with U937 (lymphoma cancer) (Homo sapiens, U-937); 1.3 µg/mL (≈ 2.32 µM) with A549 (lung cancer) (Homo sapiens); 9.0 µg/mL (≈ 16.1 µM) in the data set with MCF-7 (breast cancer) (MCF-7); 6.9 µg/mL (≈ 12.3 µM) in the data set on HT-29 (colon cancer) (HT-29); 6.4 µg/mL (≈ 11.4 µM) with HepG2 (liver cancer) (HepG2). This compound displayed an IC50 in the data set with HL-60 (leukemia) (Homo sapiens) of 2.3 µg/mL (≈ 4.1 µM).

As for `CC(C)=CCCC1(C)C=Cc2c(O)c3c(c(CC=C(C)C)c2O1)OC12C(=CC4CC1C(C)(C)OC2(CC=C(C)C(=O)O)C4=O)C3=O` (centres unmarked) [TSB-3, isogambogic acid], the LC50 came out at 5.2 µg/mL (≈ 8.27 µM) with HUVEC; 3.1 µg/mL (≈ 4.93 µM) in the data set on U937 (lymphoma cancer); 4.8 µg/mL (≈ 7.63 µM) in the data set on A549 (lung cancer); 4.3 µg/mL (≈ 6.84 µM) in the data set on MCF-7 (breast cancer) (MCF-7); 8.8 µg/mL (≈ 14 µM) in the data set with HT-29 (colon cancer) (HT-29); 1.9 µg/mL (≈ 3.02 µM) with HepG2 (liver cancer) (HepG2). The same compound registered an LC50 with HL-60 (leukemia) of 4.6 µg/mL (≈ 7.32 µM). In addition, the IC50 in the data set on HUVEC turned out to be 1.1 µg/mL (≈ 1.75 µM); in the data set with U937 (lymphoma cancer) (Homo sapiens, U-937), 0.82 µg/mL (≈ 1.3 µM); in the data set on A549 (lung cancer) (Homo sapiens), 0.88 µg/mL (≈ 1.4 µM); with MCF-7 (breast cancer) (Homo sapiens, MCF7, MCF-7), 1.6 µg/mL (≈ 2.54 µM); with HT-29 (colon cancer) (Homo sapiens, HT-29, HT-29), 6.4 µg/mL (≈ 10.2 µM); in the data set with HepG2 (liver cancer) (Homo sapiens, HepG2, HepG2), 1.2 µg/mL (≈ 1.91 µM). The same compound displayed an IC50 in the data set with HL-60 (leukemia) (Homo sapiens) of 0.97 µg/mL (≈ 1.54 µM).

Take `CC(C)=CCc1c(O)cc(O)c2c(=O)c3cc4c(c(O)c3oc12)OC(C)(C)C=C4` [TSB-4, 7,9,12-trihydroxy-2,2-dimethyl-10-(3-methyl-but-2-enyl)-2H-pyrano[3,2-b]xanthen-6-one]: the IC50 in the data set with HUVEC came out at 11 µg/mL (≈ 27.9 µM); in the data set on U937 (lymphoma cancer) (setting [1]), 6.9 µg/mL (≈ 17.5 µM); in the data set with A549 (lung cancer) (Homo sapiens) it was 1.8 µg/mL (≈ 4.56 µM); in the data set on MCF-7 (breast cancer) (Homo sapiens, MCF7, MCF-7), 10 µg/mL (≈ 25.4 µM); in the data set on HT-29 (colon cancer) (Homo sapiens, HT-29, HT-29), 8.4 µg/mL (≈ 21.3 µM); in the data set with HepG2 (liver cancer) (Homo sapiens, HepG2, HepG2), 8.9 µg/mL (≈ 22.6 µM). The same compound displayed an IC50 in the data set on HL-60 (leukemia) (Homo sapiens) of 7.7 µg/mL (≈ 19.5 µM). Also, the CC50 in the data set “in vitro” was 21 µg/mL (≈ 53.2 µM).

With `CC(C)=CCC[C@]1(C)C=Cc2c(O)c3c(c(CC=C(C)C)c2O1)O[C@]12C(=C[C@@H]4C[C@H]1C(C)(C)O[C@@]2(C/C=C(/C)C(=O)O)C4=O)C3=O` [TSB-5, gambogic acid], the IC50 is 0.87 µg/mL (≈ 1.38 µM) with HUVEC; 0.65 µg/mL (≈ 1.03 µM) with U937 (lymphoma cancer) (setting [1]); 0.8 µg/mL (≈ 1.27 µM) in the data set on A549 (lung cancer) (Homo sapiens); 0.83 µg/mL (≈ 1.32 µM) with MCF-7 (breast cancer) (Homo sapiens, MCF7, MCF-7); 4.5 µg/mL (≈ 7.16 µM) with HT-29 (colon cancer) (Homo sapiens, HT-29, HT-29); 0.83 µg/mL (≈ 1.32 µM) in the data set on HepG2 (liver cancer) (Homo sapiens, HepG2, HepG2). In the data set on HL-60 (leukemia) (Homo sapiens), the IC50 stood at 0.5 µg/mL (≈ 0.795 µM). Further, the CC50 amounted to 3.6 µg/mL (≈ 5.73 µM) in the data set “in vitro”; 3.1 µg/mL (≈ 4.93 µM) with U937 (lymphoma cancer) (Homo sapiens, U-937, read-out: LC50); 2.9 µg/mL (≈ 4.61 µM) in the data set on A549 (lung cancer) (Homo sapiens, A549, read-out: LC50); 2.7 µg/mL (≈ 4.29 µM) in the data set on MCF-7 (breast cancer) (Homo sapiens, MCF7, read-out: LC50); 7.1 µg/mL (≈ 11.3 µM) with HT-29 (colon cancer) (Homo sapiens, HT-29, read-out: LC50); 2.7 µg/mL (≈ 4.29 µM) in the data set on HepG2 (liver cancer) (Homo sapiens, HepG2, read-out: LC50). The CC50 with HL-60 (leukemia) (Homo sapiens, HL-60, read-out: LC50) was 5.2 µg/mL (≈ 8.27 µM).
